Measurements taken from patent publication US5395947A, “Platinum(II) complex and processes for preparing the same” (Sunkyong Industries, Ltd., priority 1991, dated 1995).

Assays:
[1] = test system: murine leukemia L1210 cells; assay: Growth inhibition test on cultured murine leukemia L1210 cells; format: cell-based; settings: 48 hours, 37° C., Trypan blue viability
Procedure, shortened: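 L1210 cells (1×10^5) exposed to graded compound concentrations in RPMI 1640 with 10% fetal calf serum, 37° C, 5% CO2, 48 h. Viability by 0.17% Trypan blue staining, relative to untreated control cells.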

murine leukemia L1210 = assay: Antitumor activity test on murine leukemia L1210 in vivo; set-up: species or system male BDF1 mice; settings: days 1, 5, 9
Procedure, shortened: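 Intraperitoneal L1210 model: 1×10^6 cells inoculated i.p. into 6-week-old male BDF1 mice (21±3 g) on day 0, seven per group. Compounds in 0.5% CMC given i.p. on days 1, 5 and 9; vehicle-only controls. T/C % from mean survival time of treated over control.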

[2] = Test for water solubility; format: physicochemical; settings: water
Source text: 3. Test for water solubility
A standard plot of UV absorbance(220 nm) vs. concentration was made; and employed to determine water-solubility.
The mixture was then passed through a 0.45 micron disposable membrane filter before dilution and UV measurement.

ICR mice = assay: Acute toxicity test; format: in vivo; set-up: Lethality: unit not given here; settings: for Lethality: 10080 min
Procedure, shortened: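 Male and female 7-week-old ICR mice, 6 per group, dosed intraperitoneally. Signs and survival followed for 7 days, with autopsy of animals that died.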

O=C1[O][Pt-2]2([NH2+]CC3OC4(CCCC4)OC3C[NH2+]2)[O]C(=O)C12CCC2 [Example 30, cis-cyclobutane-1,1-dicarboxylato[(4R,5R)-4,5-bis(aminomethyl)-1,3-dioxolane-2-spiro-1'-cyclopentane]platinum(II)]
IC50 (concentration required for 50% inhibition of growth) [1]: 0.55 µg/mL
T/C (%) (murine leukemia L1210; 6.2 mg/kg i.p.): 109%
T/C (%) (murine leukemia L1210; 12.5 mg/kg i.p.): 122%
T/C (%) (murine leukemia L1210; 25 mg/kg i.p.): 110%
T/C (%) (murine leukemia L1210; 50 mg/kg i.p.): 148%
T/C (%) (murine leukemia L1210; 100 mg/kg i.p.): 185%
Solubility in water [2]: 1900 µg/mL
Number of dead mice for 7 days (ICR mice; female, 94 mg/kg i.p.): 0/6
Number of dead mice, 1st day (ICR mice; female, 94 mg/kg i.p.): 0/6
Number of dead mice for 7 days (ICR mice; female, 123 mg/kg i.p.): 0/6
Number of dead mice, 1st day (ICR mice; female, 123 mg/kg i.p.): 0/6
Number of dead mice for 7 days (ICR mice; female, 160 mg/kg i.p.): 1/6
Number of dead mice, 1st day (ICR mice; female, 160 mg/kg i.p.): 0/6
Number of dead mice, 5th day (ICR mice; female, 160 mg/kg i.p.): 1/6
Lethality (ICR mice; female, 160 mg/kg i.p.): 16.7
Number of dead mice for 7 days (ICR mice; female, 208 mg/kg i.p.): 4/6
Number of dead mice, 1st day (ICR mice; female, 208 mg/kg i.p.): 0/6
Number of dead mice, 3rd day (ICR mice; female, 208 mg/kg i.p.): 2/6
Number of dead mice, 4th day (ICR mice; female, 208 mg/kg i.p.): 2/4
Lethality (ICR mice; female, 208 mg/kg i.p.): 66.7
Number of dead mice for 7 days (ICR mice; female, 270 mg/kg i.p.): 6/6
Number of dead mice, 1st day (ICR mice; female, 270 mg/kg i.p.): 0/6
Number of dead mice, 2nd day (ICR mice; female, 270 mg/kg i.p.): 4/6
Number of dead mice, 3rd day (ICR mice; female, 270 mg/kg i.p.): 2/2
Lethality (ICR mice; female, 270 mg/kg i.p.): 100.0
Number of dead mice for 7 days (ICR mice; male, 94 mg/kg i.p.): 0/6
Number of dead mice, 1st day (ICR mice; male, 94 mg/kg i.p.): 0/6
Number of dead mice for 7 days (ICR mice; male, 123 mg/kg i.p.): 0/6
Number of dead mice, 1st day (ICR mice; male, 123 mg/kg i.p.): 1/6
Number of dead mice for 7 days (ICR mice; male, 160 mg/kg i.p.): 1/6
Number of dead mice, 1st day (ICR mice; male, 160 mg/kg i.p.): 0/6
Number of dead mice, 4th day (ICR mice; male, 160 mg/kg i.p.): 1/6
Lethality (ICR mice; male, 160 mg/kg i.p.): 16.7
Number of dead mice for 7 days (ICR mice; male, 208 mg/kg i.p.): 5/6
Number of dead mice, 1st day (ICR mice; male, 208 mg/kg i.p.): 1/6
Number of dead mice, 2nd day (ICR mice; male, 208 mg/kg i.p.): 1/6
Number of dead mice, 3rd day (ICR mice; male, 208 mg/kg i.p.): 3/5
Lethality (ICR mice; male, 208 mg/kg i.p.): 83.3
Number of dead mice for 7 days (ICR mice; male, 270 mg/kg i.p.): 6/6
Number of dead mice, 1st day (ICR mice; male, 270 mg/kg i.p.): 0/6
Number of dead mice, 2nd day (ICR mice; male, 270 mg/kg i.p.): 2/6
Number of dead mice, 3rd day (ICR mice; male, 270 mg/kg i.p.): 4/4
Lethality (ICR mice; male, 270 mg/kg i.p.): 100.0

NC[C@H]1OC2(CCCC2)O[C@@H]1CN.O=C1C[O][Pt][O]1 [Example 3, (glycolato-O,O')[(4R,5R)-4,5-bis(aminomethyl)-1,3-dioxolane-2-spiro-1'-cyclopentane]platinum (II)]
IC50 (concentration required for 50% inhibition of growth) [1]: 0.10 µg/mL
T/C (%) (murine leukemia L1210; 3.1 mg/kg i.p.): 154%
T/C (%) (murine leukemia L1210; 6.2 mg/kg i.p.): 161%
T/C (%) (murine leukemia L1210; 12.5 mg/kg i.p.): 295%
T/C (%) (murine leukemia L1210; 25 mg/kg i.p.): toxic
T/C (%) (murine leukemia L1210; 50 mg/kg i.p.): toxic
Solubility in water [2]: 5800 µg/mL
Number of dead mice for 7 days (ICR mice; female, 25.0 mg/kg i.p.): 0/6
Number of dead mice, 1st day (ICR mice; female, 25.0 mg/kg i.p.): 0/6
Number of dead mice for 7 days (ICR mice; female, 32.5 mg/kg i.p.): 0/6
Number of dead mice, 1st day (ICR mice; female, 32.5 mg/kg i.p.): 0/6
Number of dead mice for 7 days (ICR mice; female, 42.3 mg/kg i.p.): 2/6
Number of dead mice, 1st day (ICR mice; female, 42.3 mg/kg i.p.): 0/6
Number of dead mice, 4th day (ICR mice; female, 42.3 mg/kg i.p.): 1/6
Number of dead mice, 5th day (ICR mice; female, 42.3 mg/kg i.p.): 1/5
Lethality (ICR mice; female, 42.3 mg/kg i.p.): 33.3
Number of dead mice for 7 days (ICR mice; female, 55.0 mg/kg i.p.): 5/6
Number of dead mice, 1st day (ICR mice; female, 55.0 mg/kg i.p.): 0/6
Number of dead mice, 3rd day (ICR mice; female, 55.0 mg/kg i.p.): 4/6
Number of dead mice, 4th day (ICR mice; female, 55.0 mg/kg i.p.): 1/2
Lethality (ICR mice; female, 55.0 mg/kg i.p.): 83.2
Number of dead mice for 7 days (ICR mice; female, 71.4 mg/kg i.p.): 6/6
Number of dead mice, 1st day (ICR mice; female, 71.4 mg/kg i.p.): 0/6
Number of dead mice, 3rd day (ICR mice; female, 71.4 mg/kg i.p.): 4/6
Number of dead mice, 4th day (ICR mice; female, 71.4 mg/kg i.p.): 2/2
Lethality (ICR mice; female, 71.4 mg/kg i.p.): 100.0
Number of dead mice for 7 days (ICR mice; male, 25.0 mg/kg i.p.): 0/6
Number of dead mice, 1st day (ICR mice; male, 25.0 mg/kg i.p.): 0/6
Number of dead mice for 7 days (ICR mice; male, 32.5 mg/kg i.p.): 0/6
Number of dead mice, 1st day (ICR mice; male, 32.5 mg/kg i.p.): 0/6
Number of dead mice, 4th day (ICR mice; male, 32.5 mg/kg i.p.): 1/6
Number of dead mice for 7 days (ICR mice; male, 42.3 mg/kg i.p.): 2/6
Number of dead mice, 1st day (ICR mice; male, 42.3 mg/kg i.p.): 0/6
Number of dead mice, 4th day (ICR mice; male, 42.3 mg/kg i.p.): 1/6
Lethality (ICR mice; male, 42.3 mg/kg i.p.): 33.3
Number of dead mice for 7 days (ICR mice; male, 55.0 mg/kg i.p.): 6/6
Number of dead mice, 1st day (ICR mice; male, 55.0 mg/kg i.p.): 0/6
Number of dead mice, 3rd day (ICR mice; male, 55.0 mg/kg i.p.): 4/6
Number of dead mice, 4th day (ICR mice; male, 55.0 mg/kg i.p.): 1/2
Number of dead mice, 5th day (ICR mice; male, 55.0 mg/kg i.p.): 1/1
Lethality (ICR mice; male, 55.0 mg/kg i.p.): 100.0
Number of dead mice for 7 days (ICR mice; male, 71.4 mg/kg i.p.): 6/6
Number of dead mice, 1st day (ICR mice; male, 71.4 mg/kg i.p.): 0/6
Number of dead mice, 3rd day (ICR mice; male, 71.4 mg/kg i.p.): 4/6
Number of dead mice, 4th day (ICR mice; male, 71.4 mg/kg i.p.): 2/2
Lethality (ICR mice; male, 71.4 mg/kg i.p.): 100.0
